Test results published in ChEMBL document CHEMBL1136283, “Synthesis and glycosidase inhibitory activity of some N-substituted 6-deoxy-5a-carba-beta-DL- and L-galactopyranosylamines” (Bioorg Med Chem Lett, 2003).

What was measured:
[1] = Inhibitory activity against beta-glucosidase in almond; design: species or system Prunus dulcis
Beta-galactosidase = target: T1, Beta-galactosidase (Bos taurus, UniProt Q58D55); assay: Inhibitory activity against beta-galactosidase in bovine liver; type: tissue-based
T1 sequence (Q58D55 whole entry): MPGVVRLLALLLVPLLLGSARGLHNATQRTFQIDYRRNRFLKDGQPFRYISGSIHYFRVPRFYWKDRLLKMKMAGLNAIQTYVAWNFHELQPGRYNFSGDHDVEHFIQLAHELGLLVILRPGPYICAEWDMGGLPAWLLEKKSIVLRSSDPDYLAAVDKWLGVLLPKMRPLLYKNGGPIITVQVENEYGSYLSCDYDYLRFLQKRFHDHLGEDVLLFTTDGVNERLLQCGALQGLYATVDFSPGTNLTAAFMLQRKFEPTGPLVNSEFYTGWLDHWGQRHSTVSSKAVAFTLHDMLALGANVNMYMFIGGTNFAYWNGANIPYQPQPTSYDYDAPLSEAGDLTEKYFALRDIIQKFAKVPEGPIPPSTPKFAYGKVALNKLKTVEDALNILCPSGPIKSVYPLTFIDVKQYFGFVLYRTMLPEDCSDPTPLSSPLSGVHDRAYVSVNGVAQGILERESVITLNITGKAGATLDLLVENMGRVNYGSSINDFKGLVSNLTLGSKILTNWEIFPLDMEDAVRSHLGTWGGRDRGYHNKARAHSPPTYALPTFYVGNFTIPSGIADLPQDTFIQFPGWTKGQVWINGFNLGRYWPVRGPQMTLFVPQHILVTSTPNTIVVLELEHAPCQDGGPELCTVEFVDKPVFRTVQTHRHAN

[2] = Inhibitory activity against beta-glucosidase in almond at pH 6.8; design: species or system Prunus dulcis
[3] = Inhibitory activity against beta-glucosidase in almond at pH 5.5; design: species or system Prunus dulcis

Compound | IC50 [1] [nM] | IC50 (Beta-galactosidase) [nM] | Ki [2] [nM] | Ki [3] [nM] | Ki [1] [nM] | Ki (Beta-galactosidase) [nM]
CCCCCCCCCCCCN[C@H]1CC(C)[C@@H](O)C(O)[C@@H]1O (stereo partly drawn) | 3600 | 3000 |  |  |  | 
CC1C[C@H](NCCCCc2ccccc2)[C@@H](O)C(O)[C@@H]1O (stereo partly drawn) | 10200 | 2400 |  |  |  | 
CCCCCCCCCCN[C@H]1CC(C)[C@@H](O)C(O)[C@@H]1O (stereo partly drawn) | 16600 | 1000 |  |  |  | 
C[C@@H]1CC(NCCc2ccccc2)[C@@H](O)[C@@H](O)[C@@H]1O (stereo in doubt; 9e (D)) |  |  | 110 |  |  | 
C[C@@H]1CC(NCCc2ccccc2)[C@@H](O)[C@@H](O)[C@@H]1O (stereo in doubt) | 380 | 5700 | 57 | 390 | 57 | 
CCCCCCCCNC1CC(C)C(O)C(O)C1O (stereo not drawn) | 1500 | 700 |  |  | 3200 | 110
CCCCCCNC1CC(C)C(O)C(O)C1O (stereo not drawn) | 730 | 3700 |  |  |  | 
CC1CC(NCCCCc2ccccc2)C(O)C(O)C1O (stereo not drawn) | 1400 | 900 |  |  | 1200 | 46
CCCCCCCCN[C@H]1CC(C)[C@@H](O)C(O)[C@@H]1O (stereo partly drawn) | 14700 | 3700 |  |  |  | 
CCCCCCCCCCNC1CC(C)C(O)C(O)C1O (stereo not drawn) | 2000 | 200 |  |  | 400 | 9
